Measured values reported in patent publication US20130203790A1, “SULFUR-CONTAINING COMPOUNDS AS ANTI-PROLIFERATIVE AGENTS” (221076 ONTARIO INC., priority 2011, published 2013).

Key:
[1] = system: platelets in whole blood (ADP, collagen and TRAP agonists); experiment: Platelet inhibition assay in whole blood (impedance platelet aggregometry, Multiplate System); assay type: cell-based, human; conditions: for dose dependence of the response in whole blood / reduction in response to agonists in whole blood (anti-platelet effect): all agonists; for dose dependence of the response in whole blood: 10-100 μM; for reduction in response to agonists in whole blood (anti-platelet effect): compound 10-100 μM
Method: (§1) Platelet function studies were performed simultaneously in both whole blood (using whole blood impedance platelet aggregometry with a Multiplate System) and platelet rich plasma (light transmission aggregometry with a Chrono-Log System). Blood was collected from healthy individuals into vacutainers containing 3.2% (w/v) citrate and was used within 3 hours of collection. Platelet rich plasma (“PRP”) was prepared by centrifugation at 170 g for 15 minutes, and the platelet count measured and adjusted to 250×109/L for use in the light transmission aggregometry studies.
(§2) Each compound was tested at final concentrations of 10, 25, 50 and 100 μM. For each test, the compound was diluted 1/100 into the PRP or whole blood to obtain the final concentrations listed. The PRP or whole blood sample was allowed to stir in the aggregometer for 3 minutes prior to agonist addition. One compound was tested each day.
(§3) As a positive control to verify the sensitivity to inhibition of thrombin receptor agonist peptide (TRAP)-mediated aggregation, TRAP-induced aggregations were also done in the presence of eptifibatide, a glycoprotein IIb/IIIa inhibitor (final concentration of 77 μg/mL in PRP and 65 μg/mL in whole blood).
(§4) Materials used included: • The four channel light transmission aggregometer instrument used for the platelet rich plasma studies was from Chrono-Log Corporation. • The ADP and collagen agonists used for platelet rich plasma studies were from Chrono-Log Corporation. • The four channel Multiplate whole blood impedance platelet aggregometer (IPA) was from DiaPharma Group. • The ADP and collagen agonists used for the whole blood studies were provided by DiaPharma Group. The TRAP agonist used in both the whole blood and PRP studies was also obtained from DiaPharma Group.

[2] = system: platelets in platelet rich plasma (ADP, collagen and TRAP agonists); experiment: Platelet inhibition assay in platelet rich plasma (light transmission aggregometry, Chrono-Log System); assay type: cell-based, human; conditions: for inhibitory activity observed in PRP: any agonist tested (ADP, collagen, TRAP), compound 10, 25, 50 and 100 μM
Method: as §1, §2, §3, §4

[3] = target: T1, t-PA (degradation of fibrin by tissue plasminogen activator) (Homo sapiens, UniProt P00750); experiment: Fibrinolysis assay, microtiter plate turbidity (clot lysis time); assay type: biochemical; conditions: 500 nM Glu-plasminogen
T1 construct: purchased Genentech
Method: (§5) Coagulation and fibrinolysis were studied simultaneously in a 96-well microtiter plate-based assay system. Varying concentrations of drug in 50 μl buffer or an equivalent volume of saline were added to the wells. To this was added 100 μl of 6 μM fibrinogen, 1 μM Glu-plasminogen and 4 mM CaCl2. Reactions were initiated by addition of 50 μl of buffer containing 2 nM t-PA and 20 nM thrombin. Final concentrations of reagents in the wells were 3 μM fibrinogen, 500 nM Glu-plasminogen, 2 mM CaCl2, 0.05 nM t-PA, 5 nM thrombin and compounds of Formulas (II), (Ill), (IV) or (V) (0-400 μM). As positive controls, hirudin or D-Phe-Pro-Arg chloromethylketone (PPACK) was used in place of the subject compounds. Plates were incubated at 23° C. for 1 h with constant shaking and turbidity was monitored continuously at 405 nm. Clot times and lysis times were determined using instrument soft wave as the times to half maximal increase and decrease in turbidity, respectively. Data are expressed as the mean±SEM of three experiments, each done in triplicate.

[4] = target: T2, thrombin (thrombin-mediated conversion of fibrinogen to fibrin) (Homo sapiens, UniProt P00734); experiment: Coagulation assay, microtiter plate turbidity (clot formation, thrombin clot time); assay type: biochemical
T2 construct: purchased Enzyme Research Laboratories
Method: as §5, with “[…] […]” for “Final concentrations of reagents in the wells were 3 μM fibrinogen, 500 nM Glu-plasminogen, 2 mM CaCl2, 0.05 nM t-PA, 5 nM thrombin and compounds of Formulas (II), (Ill), (IV) or (V) (0-400 μM). As positive controls, hirudin or D-Phe-Pro-Arg chloromethylketone (PPACK) was used in place of the subject compounds.”

[5] = tested at 0-100 nM, 5 nM thrombin

T1 sequence (P00750 36-562): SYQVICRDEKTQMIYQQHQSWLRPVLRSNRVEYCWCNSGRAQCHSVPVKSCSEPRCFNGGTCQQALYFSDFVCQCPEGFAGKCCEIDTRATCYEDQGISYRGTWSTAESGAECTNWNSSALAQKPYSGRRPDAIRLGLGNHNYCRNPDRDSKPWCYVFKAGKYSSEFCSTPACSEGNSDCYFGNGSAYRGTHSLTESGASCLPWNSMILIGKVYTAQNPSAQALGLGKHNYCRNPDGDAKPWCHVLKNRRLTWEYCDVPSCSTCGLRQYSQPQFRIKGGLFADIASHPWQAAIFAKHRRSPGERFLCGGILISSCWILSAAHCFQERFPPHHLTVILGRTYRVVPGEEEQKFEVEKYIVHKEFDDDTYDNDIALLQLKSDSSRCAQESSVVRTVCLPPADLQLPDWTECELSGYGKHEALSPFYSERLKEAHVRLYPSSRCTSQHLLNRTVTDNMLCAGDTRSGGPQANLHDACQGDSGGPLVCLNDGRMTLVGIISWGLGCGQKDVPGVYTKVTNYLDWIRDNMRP

| Molecule | dose dependence of the response in whole blood [1] | inhibitory activity observed in PRP [2] | reduction in response to agonists in whole blood (anti-platelet effect) [1] | effect on clot lysis times [3] | also measured |
| --- | --- | --- | --- | --- | --- |
| CSSc1ccccn1 [2-methyldisulfanyl-pyridine (III), 2-methyldisulfanyl-pyridine] | does not appear to be dose dependent | no inhibitory activity | – | – | reduction in response to all agonists in whole blood ([1]; not dose dependent (10-100 μM)): ~25% |
| CSSc1ccc(N)cc1 [4-methyldisulfanyl-phenylamine (IV), 4-methyldisulfanyl-phenylamine] | does not appear to be dose dependent | no inhibitory activity | Some reduction in response to all agonists | – | – |
| hirudin | – | – | – | lysis times were shortened | effect on clot formation and lysis profiles ([4]; compounds of the invention up to 400 μM, hirudin and PPACK as positive controls, 23° C., turbidity at 405 nm): inhibited clot formation and lysis; concentration causing complete inhibition of clotting [4, 5]: 25 nM; lowest concentration with measurable effect on clotting [4, 5]: 6.25 nM |
| D-Phe-Pro-Arg chloromethylketone [PPACK] | – | – | – | lysis times were shortened | – |
| 2-methyldisulfanyl-pyrimidine [2-methyldisulfanyl-pyrimidine (V)] | positive dose dependent inhibition | – | – | – | reduction of platelet response to all agonists in whole blood ([1]; 100 μM): approximately 50%; inhibitory activity observed in PRP at highest concentration ([2]; all agonists, highest concentration tested (100 μM)): surprising inhibitory activity |
| CSSc1ccncc1 [4-methyldisulfanyl-pyridine (II), 4-methyldisulfanyl-pyridine] | does not appear to be dose dependent | no inhibitory activity | reduction in response to all agonists | – | – |
